Data as given in patent US20110034414A1, “FLUOROALKYLOXY ALKANES, PROCESS FOR PRODUCTION AND USES THEREOF” (AL.CHI.MI.A. S.R.L., priority 2008, published 2011).

Tests used:
[1] = Clarity (solubility) of mixtures of fluoroalkyloxy alkane with silicone oil 1,000 cS; type: physicochemical; set-up: key: ++: the mixture is clear after stirring at room temperature; +: the mixture is opalescent after stirring at room temperature, it becomes clear after heating at 37° C
Method: Various mixtures comprising a fluoroalkyloxy alkane obtained according to Examples 1, 3 and 4 and a silicone oil having a viscosity of 1,000 cS (at 20° C.) were prepared.
Table 3 contains the amounts of fluoroalkyloxy alkane in the various mixtures (expressed as weight % on the total weight of the mixture), and the result in terms of clarity of the solution at different temperatures.

[2] = Clarity (solubility) of mixtures of fluoroalkyloxy alkane with silicone oil 5,000 cS; type: physicochemical; set-up: key: ++: the mixture is clear after stirring at room temperature; +: the mixture is opalescent after stirring at room temperature, it becomes clear after heating at 37° C
Method: Various mixtures comprising a fluoroalkyloxy alkane obtained according to Examples 1, 3 and 4 and a silicone oil having a viscosity of 5,000 cS (at 20° C.) were prepared.
Table 4 contains the amounts of fluoroalkyloxy alkane in the various mixtures (expressed as weight % on the total weight of the mixture), and the result in terms of clarity of the solution at different temperatures.

[3] = 33% by weight fluoroalkyloxy alkane in silicone oil 1,000 cS (at 20° C.)
[4] = 43% by weight fluoroalkyloxy alkane in silicone oil 1,000 cS (at 20° C.)
[5] = 50% by weight fluoroalkyloxy alkane in silicone oil 1,000 cS (at 20° C.)
[6] = 60% by weight fluoroalkyloxy alkane in silicone oil 1,000 cS (at 20° C.)
[7] = 90% by weight fluoroalkyloxy alkane in silicone oil 1,000 cS (at 20° C.)
[8] = 33% by weight fluoroalkyloxy alkane in silicone oil 5,000 cS (at 20° C.)
[9] = 43% by weight fluoroalkyloxy alkane in silicone oil 5,000 cS (at 20° C.)
[10] = 50% by weight fluoroalkyloxy alkane in silicone oil 5,000 cS (at 20° C.)
[11] = 60% by weight fluoroalkyloxy alkane in silicone oil 5,000 cS (at 20° C.)
[12] = 90% by weight fluoroalkyloxy alkane in silicone oil 5,000 cS (at 20° C.)

Row | Structure (SMILES) | clarity of the solution [1, 3] | clarity of the solution [1, 4] | clarity of the solution [1, 5] | clarity of the solution [1, 6] | clarity of the solution [1, 7] | clarity of the solution [2, 8] | clarity of the solution [2, 9] | clarity of the solution [2, 10] | clarity of the solution [2, 11] | clarity of the solution [2, 12] | clarity of the solution ([1]; 20% by weight fluoroalkyloxy alkane in silicone oil 1,000 cS (at 20° C.)) | clarity of the solution ([2]; 20% by weight fluoroalkyloxy alkane in silicone oil 5,000 cS (at 20° C.))
1 | CCCOCCC(F)(F)C(F)(F)C(F)(F)C(F)(F)F [CF3(CF2)3CH2CH2O(CH2)2CH3] | ++ | ++ | ++ | ++ | ++ | ++ | ++ | ++ | ++ | ++ | – | –
2 | CCCCCOCCC(F)(F)C(F)(F)C(F)(F)C(F)(F)F [CF3(CF2)3CH2CH2O(CH2)4CH3] | ++ | ++ | ++ | ++ | ++ | ++ | ++ | ++ | ++ | ++ | – | –
3 | CCCCCOCCC(F)(F)C(F)(F)C(F)(F)C(F)(F)C(F)(F)C(F)(F)F [CF3(CF2)5CH2CH2O(CH2)4CH3] | ++ | + | + | – | – | ++ | + | + | – | – | ++ | ++
